# According to US4309559A, “Sulphonamides useful as pesticides” (FBC Limited, priority 1977, dated 1982):
# Tests used:
# Format in all cases: in vivo
# [1] = test system: Wheat (Triticum aestivum); test: Post-emergence foliar spray of monocotyledons, wheat; conditions: foliar spray 2.8 kg/ha, 14 days, 0=no effect, 100=complete kill
# Experimental: (§1) Seeds of the monocotyledon species listed below were sown in anodised aluminium pans, 19 cm long×9.5 cm wide×5.0 cm deep, containing John Innes I potting compost. They were then watered and placed in a controlled environment room (22° C.; 65-85% relative humidity; 14 hours per day artificial illumination at 17,000 lux). 14 days after sowing, the seedlings were given a foliar spray of the compound of Example 44, formulated as an aqueous suspension together with 2000 ppm of the wetting agent Lissapol NX. The dosage rate was adjusted to be 2.8 kg active ingredient in 450 liters per hectare. After a further 14 days in the controlled environment room, the plants were visually assessed for any growth regulatory or herbicidal effect. All differences from an untreated control were scored on a scale from 0-100 where 0 signifies no effect and 100 signifies complete kill.
# (§2) The compounds listed below were tested according to the procedure of Example 66 but including rice (Oryza sativa) as an additional test species.
# Barley (Hordeum vulgare) = test: Post-emergence foliar spray of monocotyledons, barley; conditions: foliar spray 2.8 kg/ha, 14 days, 0=no effect, 100=complete kill
# Experimental: as §1, §2
# [2] = test system: Barnyardgrass (Echinochloa crus-galli); test: Post-emergence foliar spray of monocotyledons, barnyardgrass; conditions: foliar spray 2.8 kg/ha, 14 days, 0=no effect, 100=complete kill
# Experimental: as §1, §2
# rice (Oryza sativa) = test: Post-emergence foliar spray of monocotyledons, rice; conditions: foliar spray 2.8 kg/ha, 14 days, 0=no effect, 100=complete kill
# Experimental: as §1, §2
# Cotton [3] = test: Soil incorporation (I), cotton; conditions: 21 days, 0=no effect, 100=complete suppression
# Text: (§3) Each of the compounds listed below was formulated as: […]
# (§4) (I) an attaclay/sand dust and incorporated in John Innes I potting compost at a rate equivalent to 6.5 and 3.25 parts per million weight/volume of active ingredient to soil and placed in anodised aluminium pans, 19 cm long×9.5 cm wide×5.0 cm high. This is approximately equivalent to a surface application of 2.8 and 1.4 kg active ingredient per hectare cultivated to a depth of 5 cm. Seeds of the species listed below were sown in the treated soil, one species per pan, watered and placed in a controlled environment room (22° C.; 65-85% relative humidity and 14 hours artificial illumination at 17,000 lux) for 21 days.
# (§5) The plants were then visually assessed for any growth regulatory or herbicidal effects. All differences from an untreated control were scored on a scale from 0-100, where 0 signifies no effect and 100 signifies complete suppression.
# (§6) The results are shown in the following table where I stands for soil incorporation and II for surface spray.
# Tomato [4] = test: Soil incorporation (I), tomato; conditions: 21 days, 0=no effect, 100=complete suppression
# Text: as §3, §4, §5, §6
# Wheat [5] = test: Soil incorporation (I), wheat; conditions: 21 days, 0=no effect, 100=complete suppression
# Text: as §3, §4, §5, §6
# Barley [6] = test: Soil incorporation (I), barley; conditions: 21 days, 0=no effect, 100=complete suppression
# Text: as §3, §4, §5, §6
# Barnyard Grass [7] = test: Soil incorporation (I), barnyard grass; conditions: 21 days, 0=no effect, 100=complete suppression
# Text: as §3, §4, §5, §6
# Rice [8] = test: Soil incorporation (I), rice; conditions: 21 days, 0=no effect, 100=complete suppression
# Text: as §3, §4, §5, §6
# Carrot [9] = test: Soil incorporation (I), carrot; conditions: 21 days, 0=no effect, 100=complete suppression
# Text: as §3, §4, §5, §6
# Cotton [10] = test: Surface spray (II), cotton; conditions: 21 days, 0=no effect, 100=complete suppression
# Text: as §3
# (§7) (II) An aqueous suspension together with 1000 ppm of the wetting agent Lissapol NX. The surfaces of an additional set of pans with seeds already sown were then sprayed with 2.8 or 1.4 kg/ha in 450 liters/hectare, and the pans kept in the controlled environment room for 21 days.
# as §5, §6
# Tomato [11] = test: Surface spray (II), tomato; conditions: 21 days, 0=no effect, 100=complete suppression
# Text: as §3, §7, §5, §6
# Wheat [12] = test: Surface spray (II), wheat; conditions: 21 days, 0=no effect, 100=complete suppression
# Text: as §3, §7, §5, §6
# Barley [13] = test: Surface spray (II), barley; conditions: 21 days, 0=no effect, 100=complete suppression
# Text: as §3, §7, §5, §6
# Barnyard Grass [14] = test: Surface spray (II), barnyard grass; conditions: 21 days, 0=no effect, 100=complete suppression
# Text: as §3, §7, §5, §6
# Rice [15] = test: Surface spray (II), rice; conditions: 21 days, 0=no effect, 100=complete suppression
# Text: as §3, §7, §5, §6
# Carrot [16] = test: Surface spray (II), carrot; conditions: 21 days, 0=no effect, 100=complete suppression
# Text: as §3, §7, §5, §6
smiles,measurement,setting,value
CCS(=O)(=O)N(CC#N)c1ccc(Cl)c(Cl)c1 [Example 137],growth regulatory or herbicidal effect score,[1],0
same,growth regulatory or herbicidal effect score,Barley (Hordeum vulgare),0
same,growth regulatory or herbicidal effect score,[2],80
same,growth regulatory or herbicidal effect score,rice (Oryza sativa),0
same,growth regulatory or herbicidal effect score,Cotton [3]; I soil incorporation 3.25 ppm,0
same,growth regulatory or herbicidal effect score,Cotton [3]; I soil incorporation 6.5 ppm,0
same,growth regulatory or herbicidal effect score,Tomato [4]; I soil incorporation 3.25 ppm,0
same,growth regulatory or herbicidal effect score,Tomato [4]; I soil incorporation 6.5 ppm,0
same,growth regulatory or herbicidal effect score,Wheat [5]; I soil incorporation 3.25 ppm,0
same,growth regulatory or herbicidal effect score,Wheat [5]; I soil incorporation 6.5 ppm,0
same,growth regulatory or herbicidal effect score,Barley [6]; I soil incorporation 3.25 ppm,0
same,growth regulatory or herbicidal effect score,Barley [6]; I soil incorporation 6.5 ppm,0
same,growth regulatory or herbicidal effect score,Barnyard Grass [7]; I soil incorporation 3.25 ppm,90
same,growth regulatory or herbicidal effect score,Barnyard Grass [7]; I soil incorporation 6.5 ppm,90
same,growth regulatory or herbicidal effect score,Rice [8]; I soil incorporation 3.25 ppm,0
same,growth regulatory or herbicidal effect score,Rice [8]; I soil incorporation 6.5 ppm,0
same,growth regulatory or herbicidal effect score,Carrot [9]; I soil incorporation 3.25 ppm,0
same,growth regulatory or herbicidal effect score,Carrot [9]; I soil incorporation 6.5 ppm,0
same,growth regulatory or herbicidal effect score,Cotton [10]; row 3.25 ppm (1.4 kg/ha),0
same,growth regulatory or herbicidal effect score,Cotton [10]; row 6.5 ppm (2.8 kg/ha),0
same,growth regulatory or herbicidal effect score,Tomato [11]; row 3.25 ppm (1.4 kg/ha),0
same,growth regulatory or herbicidal effect score,Tomato [11]; row 6.5 ppm (2.8 kg/ha),0
same,growth regulatory or herbicidal effect score,Wheat [12]; row 3.25 ppm (1.4 kg/ha),0
same,growth regulatory or herbicidal effect score,Wheat [12]; row 6.5 ppm (2.8 kg/ha),0
same,growth regulatory or herbicidal effect score,Barley [13]; row 3.25 ppm (1.4 kg/ha),0
same,growth regulatory or herbicidal effect score,Barley [13]; row 6.5 ppm (2.8 kg/ha),0
same,growth regulatory or herbicidal effect score,Barnyard Grass [14]; row 3.25 ppm (1.4 kg/ha),90
same,growth regulatory or herbicidal effect score,Barnyard Grass [14]; row 6.5 ppm (2.8 kg/ha),100
same,growth regulatory or herbicidal effect score,Rice [15]; row 3.25 ppm (1.4 kg/ha),0
same,growth regulatory or herbicidal effect score,Rice [15]; row 6.5 ppm (2.8 kg/ha),0
same,growth regulatory or herbicidal effect score,Carrot [16]; row 3.25 ppm (1.4 kg/ha),0
same,growth regulatory or herbicidal effect score,Carrot [16]; row 6.5 ppm (2.8 kg/ha),0
